Legend:
[1] = molecular target: T1, muscarinic acetylcholine receptors of human m1 (Homo sapiens, UniProt P11229); test: Test on inhibition of binding to muscarinic receptors (m1); details: human m1 expressed in CHO cells, 0.2 nM [3H]-N-methylscopolamine, 120 minutes at room temperature
T1 construct: purchased Receptor Biology, Inc; host or cells: CHO cells
T1 sequence (P11229 1-460): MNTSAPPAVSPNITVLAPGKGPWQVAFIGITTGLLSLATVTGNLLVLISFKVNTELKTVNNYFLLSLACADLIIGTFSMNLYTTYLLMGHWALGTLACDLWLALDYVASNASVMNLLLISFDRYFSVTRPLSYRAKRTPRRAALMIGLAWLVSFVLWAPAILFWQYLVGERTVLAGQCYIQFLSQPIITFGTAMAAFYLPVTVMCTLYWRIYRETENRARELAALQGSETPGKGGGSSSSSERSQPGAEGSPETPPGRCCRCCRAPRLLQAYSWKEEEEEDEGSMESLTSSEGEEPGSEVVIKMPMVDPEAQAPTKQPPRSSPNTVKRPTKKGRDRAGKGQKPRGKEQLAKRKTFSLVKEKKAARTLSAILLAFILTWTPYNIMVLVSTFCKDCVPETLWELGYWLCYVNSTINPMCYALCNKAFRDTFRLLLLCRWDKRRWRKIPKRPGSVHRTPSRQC
Protocol: (§1) The test was performed according to a modification of the method of Hargreaves, et al. (Br. J. Pharmacol. 107: 494–501, 1992). Namely, muscarinic acetylcholine receptors of human m1, m2, m3, m4 and m5 expressed in CHO cells (Receptor Biology, Inc.) were incubated with 0.2 nM [^3H]-N-methylscopolamine (82Ci/mmol, New England Nuclear, Inc.) and a test compound, either in 0.5 ml of 50 mM Tris-HCI, 10 mM MgCl2, 1 mM EDTA solution (pH 7.4) (human m1, m3 and m5 samples) or in 0.5 ml of 50 mM tris-HCl, 10 mM MgCl2, 1 mM EDTA, 5000 nM GTPγS solution (pH 7.4) (human m2 and m4 samples) for 120 minutes at room temperature (about 20–25° C.), followed by suction filtration over a glass filter (UniFilter plate-GF/C; Packard). Then the filter was washed four times with 1 ml of ice-cooled Tris-HCI buffer and dried at 50° C. for an hour. After adding a scintillator (Microscinti 0; Packard), the radioactivity of [^3H]-N-methylscopolamine binding to the filter was counted with a microplate scintillation counter (TopCount; Packard). Non-specific receptor binding of [^3H]-N-methylscopolamine was measured by adding 1 μM N-methylscopolamine. According to the method of Cheng and Prusoff (Biochem. Pharmacol. 22: 3099–3108, 1973), the binding affinity of each sample compound of the present invention for muscarinic receptors is expressed by inhibition constant (Ki) which is calculated from the concentration (IC50) of the sample compound which achieves 50% inhibition of binding of [^3H]-N-methylscopolamine, the labeled ligand. Smaller inhibition constant (Ki) represents stronger tendency to bind to muscarinic receptors, i.e., a higher binding inhibitory effect.

[2] = molecular target: T2, muscarinic acetylcholine receptors of human m2 (Homo sapiens, UniProt P08172); test: Test on inhibition of binding to muscarinic receptors (m2); details: human m2 expressed in CHO cells, 0.2 nM [3H]-N-methylscopolamine, 5000 nM GTPγS, 120 minutes at room temperature
T2 construct: purchased Receptor Biology, Inc; host or cells: CHO cells
T2 sequence (P08172 1-466): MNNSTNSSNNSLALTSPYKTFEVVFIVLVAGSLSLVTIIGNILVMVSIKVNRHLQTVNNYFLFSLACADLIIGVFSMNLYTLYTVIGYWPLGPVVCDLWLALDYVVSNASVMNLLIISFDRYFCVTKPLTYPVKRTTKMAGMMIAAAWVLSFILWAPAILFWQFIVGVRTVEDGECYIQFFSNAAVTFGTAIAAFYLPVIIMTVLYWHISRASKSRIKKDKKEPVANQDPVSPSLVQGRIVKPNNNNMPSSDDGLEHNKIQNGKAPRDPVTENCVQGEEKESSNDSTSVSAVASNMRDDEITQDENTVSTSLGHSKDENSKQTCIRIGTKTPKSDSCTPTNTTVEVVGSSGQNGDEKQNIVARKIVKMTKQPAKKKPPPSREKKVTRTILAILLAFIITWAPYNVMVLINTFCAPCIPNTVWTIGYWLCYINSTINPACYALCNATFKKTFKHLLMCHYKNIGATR
Protocol: as §1

[3] = molecular target: T3, muscarinic acetylcholine receptors of human m3 (Homo sapiens, UniProt P20309); test: Test on inhibition of binding to muscarinic receptors (m3); details: human m3 expressed in CHO cells, 0.2 nM [3H]-N-methylscopolamine, 120 minutes at room temperature
T3 construct: purchased Receptor Biology, Inc; host or cells: CHO cells
Protocol: as §1

[4] = molecular target: T4, muscarinic acetylcholine receptors of human m4 (Homo sapiens, UniProt P08173); test: Test on inhibition of binding to muscarinic receptors (m4); details: for Ki: human m4 expressed in CHO cells, 0.2 nM [3H]-N-methylscopolamine, 5000 nM GTPγS, 120 minutes at room temperature; for Selectivity (times) m1/m4: ratio of Ki m1 to Ki m4; for Selectivity (times) m2/m4: ratio of Ki m2 to Ki m4; for Selectivity (times) m3/m4: ratio of Ki m3 to Ki m4; for Selectivity (times) m5/m4: ratio of Ki m5 to Ki m4
T4 construct: purchased Receptor Biology, Inc; host or cells: CHO cells
T4 sequence (P08173 1-479): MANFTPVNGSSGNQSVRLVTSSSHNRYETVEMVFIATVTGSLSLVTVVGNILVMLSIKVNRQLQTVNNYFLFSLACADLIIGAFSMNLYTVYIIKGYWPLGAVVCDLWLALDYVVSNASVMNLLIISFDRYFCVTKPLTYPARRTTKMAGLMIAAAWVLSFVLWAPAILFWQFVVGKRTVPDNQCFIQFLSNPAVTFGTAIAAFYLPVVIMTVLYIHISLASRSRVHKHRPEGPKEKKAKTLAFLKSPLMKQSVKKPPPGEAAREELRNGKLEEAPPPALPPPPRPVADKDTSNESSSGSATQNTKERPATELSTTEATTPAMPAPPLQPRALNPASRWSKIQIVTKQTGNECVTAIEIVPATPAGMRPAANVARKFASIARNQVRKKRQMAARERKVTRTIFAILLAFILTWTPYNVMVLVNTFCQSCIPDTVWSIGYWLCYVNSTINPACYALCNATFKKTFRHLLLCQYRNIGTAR
Protocol: as §1

[5] = molecular target: T5, muscarinic acetylcholine receptors of human m5 (Homo sapiens, UniProt P08912); test: Test on inhibition of binding to muscarinic receptors (m5); details: human m5 expressed in CHO cells, 0.2 nM [3H]-N-methylscopolamine, 120 minutes at room temperature
T5 construct: purchased Receptor Biology, Inc; host or cells: CHO cells
T5 sequence (P08912 1-532): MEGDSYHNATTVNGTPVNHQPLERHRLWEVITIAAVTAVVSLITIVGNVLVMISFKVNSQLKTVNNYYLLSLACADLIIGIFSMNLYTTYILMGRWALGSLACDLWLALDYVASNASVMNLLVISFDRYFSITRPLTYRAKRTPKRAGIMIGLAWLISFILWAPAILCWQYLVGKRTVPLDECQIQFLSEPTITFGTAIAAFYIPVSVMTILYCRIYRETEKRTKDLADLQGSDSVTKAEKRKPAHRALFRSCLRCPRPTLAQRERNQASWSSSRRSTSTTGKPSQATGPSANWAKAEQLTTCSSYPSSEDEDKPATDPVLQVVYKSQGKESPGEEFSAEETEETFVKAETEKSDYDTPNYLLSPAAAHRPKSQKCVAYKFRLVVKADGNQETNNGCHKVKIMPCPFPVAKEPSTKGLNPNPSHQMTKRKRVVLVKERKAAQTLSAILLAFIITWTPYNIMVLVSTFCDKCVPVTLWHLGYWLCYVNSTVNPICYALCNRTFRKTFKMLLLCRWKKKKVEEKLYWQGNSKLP
Protocol: as §1

T3 sequence (P20309 whole entry): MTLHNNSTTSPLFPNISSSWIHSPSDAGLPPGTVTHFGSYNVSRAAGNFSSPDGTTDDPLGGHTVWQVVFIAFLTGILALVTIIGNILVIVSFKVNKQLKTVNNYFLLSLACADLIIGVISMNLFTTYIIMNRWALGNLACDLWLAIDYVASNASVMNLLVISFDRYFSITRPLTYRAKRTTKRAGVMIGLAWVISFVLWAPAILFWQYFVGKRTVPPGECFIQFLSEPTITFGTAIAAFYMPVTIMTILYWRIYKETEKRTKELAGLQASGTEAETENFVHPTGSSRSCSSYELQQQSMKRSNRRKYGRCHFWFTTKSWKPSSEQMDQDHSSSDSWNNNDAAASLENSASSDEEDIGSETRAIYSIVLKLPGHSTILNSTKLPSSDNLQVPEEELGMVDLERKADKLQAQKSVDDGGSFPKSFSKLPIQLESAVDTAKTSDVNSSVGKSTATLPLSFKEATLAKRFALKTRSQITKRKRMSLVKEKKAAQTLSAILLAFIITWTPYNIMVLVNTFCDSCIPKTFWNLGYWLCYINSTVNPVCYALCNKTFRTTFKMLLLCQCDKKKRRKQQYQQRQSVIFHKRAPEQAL

| Ki [1] | Ki [2] | Ki [3] | Ki [4] | Selectivity (times) m1/m4 [4] | Selectivity (times) m2/m4 [4] | Selectivity (times) m3/m4 [4] | Selectivity (times) m5/m4 [4] | Ki [5] | SMILES |
| --- | --- | --- | --- | --- | --- | --- | --- | --- | --- |
| 25 nM | 31 nM | 1700 nM | 1.7 nM | 15 times | 19 times | 1000 times | 270 times | 450 nM | O=C(c1cccnc1)N1CCCC(CCN2CCC(n3c(=O)[nH]c4ccccc43)CC2)CC1 (single isomer, unassigned) [Example 9, (S*)-1-[1-[2-[1-(3-pyridylcarbonyl)perhydroazepin-4-yl]ethyl]piperidin-4-yl]-1,3-dihydro-2H-benzimidazol-2-one] |
| 28 nM | 73 nM | 7400 nM | 4.5 nM | 6.1 times | 16 times | 1600 times | 57 times | 260 nM | O=C(c1cnccn1)N1CCC(CCN2CCC(n3c(=O)[nH]c4ccccc43)CC2)CC1 [Example 4, 1-[1-[2-[1-(Pyrazinylcarbonyl)piperidin-4-yl]ethyl]piperidin-4-yl]-1,3-dihydro-2H-benzimidazol-2-one] |
| 22 nM | 24 nM | 4500 nM | 2.3 nM | 9.7 times | 11 times | 2000 times | 99 times | 220 nM | CC(CN1CCC(n2c(=O)[nH]c3ccccc32)CC1)C1CCN(C(=O)c2cccnc2)CC1 (stereo not drawn) [Example 12, 1-[1-[2-[1-(3-Pyridylcarbonyl)piperidin-4-yl]propyl]piperidin-4-yl]-1,3-dihydro-2H-benzimidazol-2-one] |
